{"source": "patent US8614068B2", "about": "“Process for producing hepcidin” (Hellenic Pasteur Institute, priority 2007, dated 2013)", "key": {"[1]": {"tested_on": "RAW 264.7 macrophages", "assay": "Labile Iron Pool (LIP) calcein assay", "assay_type": "cell-based, murine", "details": "Hep-25His-treated RAW 264.7 macrophages", "description": "FIG. 6. Recombinant tagged hepcidins increase the Labile Iron Pool in RAW 264.7 macrophages. RAW 264.7 macrophages were treated with 10 μM Hep-25His having the sequence of SEQ ID NO. 6, Hep-25MycHis having the sequence of SEQ ID NO. 8, Hep-20MycHis having the sequence of SEQ ID NO. 7 and negative peptide having the sequence of SEQ ID NO. 9 for 4 h at 37° C. PBS was used as negative and FAC at 30 μg/ml as positive control. Relative alterations of the LIP were monitored with calcein upon addition of isonicotinoyl-hydraxone salicylaldehyde. Data are expressed as mean±S.D. of two independent experiments performed in triplicates relative to control. **p<0.001, *p<0.05. Statistical analysis was performed with t-Test.\nLIP assay—The fluorescent metalosensor calcein (Molecular Probes, Eugene, Oreg.) was used for the measurement of alterations in the levels of the LIP (Labile Iron Pool) (Murphy, A. T., Witcher, D. R., Luan, P., and Wroblewski, V. J. (2007) Blood 110, 1048-54). 1×10^6 RAW 264.7 macrophages were plated in 6-well plates. […] Fluorescence was measured with the Perkin Elmer LS55 fluorescent plate reader (Perkin Elmer LifeSciences, Boston Mass.) (488 nm excitation, 517 nm emission). […] Relative changes were expressed as percentage of the control. […]"}, "[2]": {"target": "T1, FPN1-GFP (Mus musculus, UniProt Q9JHI9)", "T1 construct": "expressed in transfected cells", "T1 sequence (Q9JHI9 1-570)": "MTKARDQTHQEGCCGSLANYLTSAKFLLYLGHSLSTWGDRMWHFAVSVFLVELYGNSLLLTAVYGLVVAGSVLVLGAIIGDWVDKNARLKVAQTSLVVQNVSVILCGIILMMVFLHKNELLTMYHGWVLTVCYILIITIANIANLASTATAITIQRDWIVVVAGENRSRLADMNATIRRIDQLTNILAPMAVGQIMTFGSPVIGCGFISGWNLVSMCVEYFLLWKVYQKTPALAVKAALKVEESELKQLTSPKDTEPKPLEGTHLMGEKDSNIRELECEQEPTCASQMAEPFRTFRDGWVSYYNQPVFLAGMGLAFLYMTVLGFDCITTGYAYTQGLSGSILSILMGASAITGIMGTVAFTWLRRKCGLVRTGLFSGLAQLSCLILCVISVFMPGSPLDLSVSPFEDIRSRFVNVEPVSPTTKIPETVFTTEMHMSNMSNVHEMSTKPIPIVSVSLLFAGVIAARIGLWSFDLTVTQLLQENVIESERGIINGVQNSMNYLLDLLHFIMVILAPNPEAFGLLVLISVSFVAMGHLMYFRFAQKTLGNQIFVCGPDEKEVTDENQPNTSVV", "assay": "FPN1-GFP internalization by confocal microscopy in HEK293-Fpn cells", "assay_type": "cell-based", "details": "HEK293-Fpn cells induced with ponasterone 24 h, treated 3 h", "description": "A, RAW 264.7 macrophages were treated with 11 μM and 10 μM of synthetic hepcidin-25 (having the sequence of SEQ ID NO. 2) and Hep-25His (having the sequence of SEQ ID NO. 6) for 4 h at 37° C. or with PBS as negative control. Cell lysates were subjected to 8% SDS PAGE and Western Blot with antibodies against TfR1, Ferroportin and actin as loading control. B, The signal density of ferroportin, TfR1 and actin protein bands from two independent experiments were quantified by densitometry and their intensity relative to actin was calculated. Data are expressed as mean of ratios of TfR1 or to actin levels ±S.D. for each experimental condition. *p<0.01. […] Hep25-His, negative peptide and PBS was incubated with Raw 264.7 macrophages, followed by cross-linking with DSS. Cell lysates were incubated with Ni2-NTA and eluates were analyzed by Western blot using anti-FPN1 Ab. […] Fluorescence was visualized with a Leica TCS confocal microscope. […]\nFurthermore, the internalization of FPN1 in the presence of Hep25-His (having the sequence of SEQ ID NO. 6) was analyzed in HEK293-Fpn cells by confocal microscopy; these cells express an FPN1-GFP fusion construct on the plasma membrane (Nemeth, E., Tuttle, M. S., Powelson, J., Vaughn, M. B., Donovan, A., Ward, D. M. Ganz, T., Kaplan, J. (2004) Science 306, 2090-3)."}}, "note": "“Also recorded” adds a separate entry of the source.", "data": [{"substance": "hepcidin-25His [Hep-25His]", "values": [{"measurement": "retention of iron, LIP levels", "setting": "[1]", "result": "increase in LIP levels"}, {"measurement": "internalization of FPN1-GFP", "setting": "[2]", "result": "promoted the internalization of FPN1-GFP; also recorded: causes the internalization of FPN1-GFP"}]}]}
